Data set [1] deals with Wee1-like protein kinase (Homo sapiens, UniProt P30291).
Data set [2] is described as follows: physchem.
Description: Dissociation constant, pKa of the compound
Data set [3] relates to HT-29. Kind of data set: cells. It counts as functional, cell-based. Particulars: Homo sapiens, HT-29, 72 h.
Description: Cytotoxicity against human HT29 cells after 72 hrs
Data set [4] concerns HT-29. In words: cells. It counts as cell-based. Particulars: Homo sapiens.
Description: Inhibition of human Cdc2/cyclin B-mediated histone H1 kinase phosphorylation in HT29 cells
For data set [5], the target named is Cyclin-dependent kinase 1 (Homo sapiens, UniProt P06493). It counts as cell-based. Particulars: ht-29.
Sequence of Cyclin-dependent kinase 1 (P06493 whole entry): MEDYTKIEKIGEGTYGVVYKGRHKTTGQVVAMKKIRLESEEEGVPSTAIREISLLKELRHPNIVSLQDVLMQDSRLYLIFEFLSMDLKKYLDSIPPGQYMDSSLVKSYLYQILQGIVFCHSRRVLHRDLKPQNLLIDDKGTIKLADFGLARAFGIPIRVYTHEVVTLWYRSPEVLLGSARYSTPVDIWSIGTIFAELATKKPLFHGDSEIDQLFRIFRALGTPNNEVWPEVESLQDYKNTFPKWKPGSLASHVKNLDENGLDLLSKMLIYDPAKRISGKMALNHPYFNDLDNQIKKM
Description: Inhibition of human Cdc2 kinase PY15 phosphorylation in HT29 cells by Western blot
The target of data set [6] is T1, Serine/threonine-protein kinase Chk1 (Homo sapiens, UniProt O14757).
T1 sequence (O14757 whole entry): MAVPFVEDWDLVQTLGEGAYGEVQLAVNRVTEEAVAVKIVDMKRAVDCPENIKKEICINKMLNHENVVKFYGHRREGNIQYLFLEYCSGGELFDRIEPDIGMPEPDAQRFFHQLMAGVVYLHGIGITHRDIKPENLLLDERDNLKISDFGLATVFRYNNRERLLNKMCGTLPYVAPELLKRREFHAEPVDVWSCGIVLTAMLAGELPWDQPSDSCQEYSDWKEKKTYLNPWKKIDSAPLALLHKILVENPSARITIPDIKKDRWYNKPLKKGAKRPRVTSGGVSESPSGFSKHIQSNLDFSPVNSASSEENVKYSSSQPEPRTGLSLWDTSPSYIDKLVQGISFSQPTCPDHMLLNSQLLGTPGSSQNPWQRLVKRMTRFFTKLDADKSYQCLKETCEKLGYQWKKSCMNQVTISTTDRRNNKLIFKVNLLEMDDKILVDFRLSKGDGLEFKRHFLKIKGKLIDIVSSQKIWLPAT

A short description of data set [7]: physchem. Particulars: buffer.
Description: Aqueous solubility in water

Sequence of Wee1-like protein kinase (P30291 whole entry): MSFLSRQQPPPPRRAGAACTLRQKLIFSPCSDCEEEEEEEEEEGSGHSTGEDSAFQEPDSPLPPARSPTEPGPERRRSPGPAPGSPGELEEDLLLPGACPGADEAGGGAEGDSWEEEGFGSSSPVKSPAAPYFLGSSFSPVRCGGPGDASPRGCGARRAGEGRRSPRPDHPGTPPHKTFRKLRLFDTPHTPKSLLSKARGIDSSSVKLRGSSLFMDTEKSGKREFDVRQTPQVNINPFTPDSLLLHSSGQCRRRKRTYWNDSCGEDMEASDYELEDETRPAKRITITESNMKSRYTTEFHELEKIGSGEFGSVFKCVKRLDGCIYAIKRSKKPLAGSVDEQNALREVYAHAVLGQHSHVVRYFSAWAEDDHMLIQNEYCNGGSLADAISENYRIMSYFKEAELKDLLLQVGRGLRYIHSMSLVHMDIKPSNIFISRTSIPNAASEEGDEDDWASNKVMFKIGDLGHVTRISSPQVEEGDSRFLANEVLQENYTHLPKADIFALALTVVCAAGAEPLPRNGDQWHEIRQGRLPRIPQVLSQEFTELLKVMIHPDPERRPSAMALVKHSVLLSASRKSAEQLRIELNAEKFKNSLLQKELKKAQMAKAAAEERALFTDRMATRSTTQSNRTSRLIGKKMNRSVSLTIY

`CN(C)CCCCc1cc2c(cc1O)c1c3c(c(-c4ccccc4Cl)cc1n2C)C(=O)NC3=O`: inhibition in data set [1] was half-maximal at 34 nM (IC50). The pKa in data set [2] is 9.5.

For the molecule `Cn1c2cc(OCCCN3CCCC3)c(O)cc2c2c3c(c(-c4ccccc4Cl)cc21)C(=O)NC3=O`, the figures for the IC50 in data set [3], in data set [4] and in data set [5] were 310 nM, 230 nM and 30 nM, respectively. The pKa in data set [2] worked out at 10.5.

In the case of `O=C1NC(=O)c2c1c(-c1ccccc1Cl)cc1c2c2cc(O)c(CCCCN3CCCC3)cc2n1CCO`, the IC50 in data set [1] came to 24 nM. Also, the pKa in data set [2] stood at 10.5.

Molecule `O=C1NC(=O)c2c1c(-c1ccccc1Cl)cc1[nH]c3cc(OCCCN4CCOCC4)c(O)cc3c21` came in with an IC50 in data set [1] of 26 nM. For the same molecule, in data set [2], the pKa was 7.8.

The molecule `Cn1c2cc(S(=O)(=O)CCCN3CCCC3)c(O)cc2c2c3c(c(-c4ccccc4Cl)cc21)C(=O)NC3=O` had an IC50 in data set [1] of 160 nM. In addition, the pKa in data set [2] is 10.5.

In data set [1], `O=C1NC(=O)c2c1c(-c1ccccc1Cl)cc1c2c2cc(O)c(CCCCN3CCOCC3)cc2n1CCO` displayed an IC50 of 19 nM. In data set [2], this molecule yielded a pKa of 7.8.

Regarding `O=C1NC(=O)c2c1c(-c1ccccc1Cl)cc1c2c2cc(O)c(OCCCN3CCCC3)cc2n1CCO`, the IC50 came to 860 nM in data set [4], 30 nM in data set [5] and 24 nM in data set [1]. Also, in data set [2], the pKa was determined as 10.5.

With `Cn1c2cc([S+]([O-])CCCN3CCCC3)c(O)cc2c2c3c(c(-c4ccccc4Cl)cc21)C(=O)NC3=O` (configuration not stated), the results for the IC50 in data set [6] and in data set [1] were 7 nM and 33 nM, respectively. The molecule also registered a pKa in data set [2] of 10.5.

On to `O=C1NC(=O)c2c1c(-c1ccccc1Cl)cc1[nH]c3cc(OCCCN4CCCC4)c(O)cc3c21`, for which half-maximal inhibition in data set [1] (IC50) required 35 nM. This molecule displayed a pKa in data set [2] of 10.5.

Molecule `Cn1c2cc(CCCCN3CCCC3)c(O)cc2c2c3c(c(-c4ccccc4Cl)cc21)C(=O)NC3=O` yielded an IC50 in data set [1] of 36 nM. This molecule yielded a pKa in data set [2] of 10.5.

As for `O=C1NC(=O)c2c1c(-c1ccccc1Cl)cc1c2c2cc(O)c(OCCCN3CCOCC3)cc2n1CCO`, the IC50 in data set [4] was found to be 530 nM; in data set [5], 250 nM; in data set [1], 15 nM. The pKa in data set [2] is 7.8.

As to `Cn1c2cc(C(=O)NCCN3CCCC3)c(O)cc2c2c3c(c(-c4ccccc4Cl)cc21)C(=O)NC3=O`, in data set [2], the pKa came to 10.5.

In the case of `Cn1c2cc(OCCCN3CCOCC3)c(O)cc2c2c3c(c(-c4ccccc4Cl)cc21)C(=O)NC3=O`, in data set [1], half-maximal inhibition (IC50) required 57 nM. For the same molecule, in data set [2], the pKa came out at 7.8.

Take `CN(C)CCCOc1cc2[nH]c3cc(-c4ccccc4Cl)c4c(c3c2cc1O)C(=O)NC4=O`: it took 26 nM to reach half-maximal inhibition in data set [1] (IC50). In data set [2], this molecule had a pKa of 9.5.

Consider `O=C1NC(=O)c2c1c(-c1ccccc1Cl)cc1[nH]c3cc(CCCCN4CCCC4)c(O)cc3c21`, for which the IC50 in data set [4] is 780 nM; in data set [5], 200 nM; in data set [1] it was 50 nM. This molecule came in with a pKa in data set [2] of 10.5.

Turning to `CN(C)CCCCc1cc2[nH]c3cc(-c4ccccc4Cl)c4c(c3c2cc1O)C(=O)NC4=O`, the IC50 is 880 nM in data set [4], 250 nM in data set [5] and 49 nM in data set [1]. In data set [2], the pKa worked out at 9.5.

In the case of `CN(C)CCCOc1cc2c(cc1O)c1c3c(c(-c4ccccc4Cl)cc1n2CCO)C(=O)NC3=O`, the IC50 in data set [4] was 750 nM; in data set [5] it was 250 nM; in data set [1] it was 18 nM. The pKa in data set [2] was found to be 9.5.

`Cn1c2cc(S(=O)(=O)NCCN3CCCC3)c(O)cc2c2c3c(c(-c4ccccc4Cl)cc21)C(=O)NC3=O`: inhibition in data set [1] was half-maximal at 46 nM (IC50). Further, in data set [2], the pKa was 10.5.

Take `O=C1NC(=O)c2c1c(-c1ccccc1Cl)cc1[nH]c3cc(CCCCN4CCOCC4)c(O)cc3c21`: the IC50 is 1230 nM in data set [4], 250 nM in data set [5] and 37 nM in data set [1]. This molecule gave a pKa in data set [2] of 7.8.

`Cn1c2cc(SCCCN3CCCC3)c(O)cc2c2c3c(c(-c4ccccc4Cl)cc21)C(=O)NC3=O`: 20 nM corresponded to half-maximal inhibition in data set [1] (IC50). The pKa in data set [2] came to 10.5.

`CN(C)CCCOc1cc2c(cc1O)c1c3c(c(-c4ccccc4Cl)cc1n2C)C(=O)NC3=O`: the IC50 in data set [3] came out at 230 nM; in data set [5], 10 nM. Also, the pKa in data set [2] was found to be 9.5.

In data set [7], `O=C1NC(=O)c2c1c(-c1ccccc1Cl)cc1c2c2cc(O)ccc2n1CCCO` registered a solubility of less than 3 µg/mL. For the same molecule, in data set [5], the IC50 was 250 nM.

Molecule `Cn1c2cc(CCCCN3CCOCC3)c(O)cc2c2c3c(c(-c4ccccc4Cl)cc21)C(=O)NC3=O` gave an IC50 in data set [1] of 30 nM. Also, the pKa in data set [2] was determined as 7.8.

Consider `CN(C)CCCOc1cc2c(cc1O)c1c3c(c(-c4ccccc4Cl)cc1n2C)C(=O)NC3=O.Cl`, for which the concentration in solution in data set [7] (solubility) was 2200 µg/mL.

Values taken from ChEMBL document CHEMBL1143190, “Synthesis and structure-activity relationships of soluble 8-substituted 4-(2-chlorophenyl)-9-hydroxypyrrolo[3,4-c]carbazole-1,3(2H,6H)-diones as inhibitors of the Wee1 and Chk1 checkpoint kinases” (Bioorg Med Chem Lett, 2008).
